# Experiments:
# Test in all cases: relative viability (nuclei count vs DMSO), 5 days (fraction); higher = more cells survive
# XMD13-2 + Trametinib = compound: C1CC1C(=O)NC2=NNC3=C2C=CC(=C3)C4=CC(=CC=C4)C(=O)NC5CC5 [XMD13-2] + CC(=O)Nc1cccc(-n2c(=O)n(C3CC3)c(=O)c3c(Nc4ccc(I)cc4F)n(C)c(=O)c(C)c32)c1 [Trametinib] (partner 0.02 µM)
# Method in brief: (§1)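 After 5 days of treatment, lung cancer cells in 1536-well plates were fixed and stained in a single step (final 0.05% Triton X-100, 1% formaldehyde, 1 ug/ml Hoechst) and their nuclei counted on 4× images. Treatment had been applied by pin tool the day after seeding as one drug alone or as a fixed anchor-drug dose with five library-drug doses (not always all listed) in √10 steps. Relative viability is the nuclei count of treated wells divided by that of vehicle wells, and values are medians of duplicate plates.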
# XMD13-2 + Dasatinib = compound: C1CC1C(=O)NC2=NNC3=C2C=CC(=C3)C4=CC(=CC=C4)C(=O)NC5CC5 [XMD13-2] + Cc1nc(Nc2ncc(C(=O)Nc3c(C)cccc3Cl)s2)cc(N2CCN(CCO)CC2)n1 [Dasatinib] (partner 0.075 µM)
# Method in brief: as §1
# ALW-II-49-7 + Linsitinib = compound: Cc1ccc(C(=O)Nc2cccc(C(F)(F)F)c2)cc1Nc1cncc(C(N)=O)c1 [ALW-II-49-7] + C[C@]1(O)C[C@@H](c2nc(-c3ccc4ccc(-c5ccccc5)nc4c3)c3c(N)nccn32)C1 [Linsitinib] (partner 1 µM)
# Method in brief: as §1
# ALW-II-49-7 + Dasatinib = compound: Cc1ccc(C(=O)Nc2cccc(C(F)(F)F)c2)cc1Nc1cncc(C(N)=O)c1 [ALW-II-49-7] + Cc1nc(Nc2ncc(C(=O)Nc3c(C)cccc3Cl)s2)cc(N2CCN(CCO)CC2)n1 [Dasatinib] (partner 0.075 µM)
# Method in brief: as §1
Cell Line,relative viability (XMD13-2 + Trametinib; first compound 0.05 µM),relative viability (XMD13-2 + Trametinib; first compound 0.1581 µM),relative viability (XMD13-2 + Trametinib; first compound 0.5 µM),relative viability (XMD13-2 + Trametinib; first compound 1.581 µM),relative viability (XMD13-2 + Trametinib; first compound 5 µM),relative viability (XMD13-2 + Dasatinib; first compound 0.05 µM),relative viability (XMD13-2 + Dasatinib; first compound 0.1581 µM),relative viability (XMD13-2 + Dasatinib; first compound 0.5 µM),relative viability (XMD13-2 + Dasatinib; first compound 1.581 µM),relative viability (XMD13-2 + Dasatinib; first compound 5 µM),relative viability (ALW-II-49-7 + Linsitinib; first compound 0.08 µM),relative viability (ALW-II-49-7 + Linsitinib; first compound 0.253 µM),relative viability (ALW-II-49-7 + Linsitinib; first compound 0.8 µM),relative viability (ALW-II-49-7 + Linsitinib; first compound 2.53 µM),relative viability (ALW-II-49-7 + Linsitinib; first compound 8 µM),relative viability (ALW-II-49-7 + Dasatinib; first compound 0.08 µM),relative viability (ALW-II-49-7 + Dasatinib; first compound 0.253 µM),relative viability (ALW-II-49-7 + Dasatinib; first compound 0.8 µM),relative viability (ALW-II-49-7 + Dasatinib; first compound 2.53 µM),relative viability (ALW-II-49-7 + Dasatinib; first compound 8 µM)
NCI-H1666,0.745,0.937,0.89,0.799,0.987,0.789,0.852,0.861,0.813,0.851,0.81,0.794,0.81,0.842,0.781,0.845,0.81,0.794,0.767,0.835
NCI-H1734,0.783,0.653,0.753,0.662,0.627,0.493,0.419,0.484,0.373,0.428,0.927,0.911,0.872,0.815,0.828,0.483,0.414,0.485,0.463,0.332
NCI-H1755,0.821,0.714,0.722,0.754,0.697,0.526,0.425,0.418,0.459,0.428,1.05,1.14,1.01,0.978,0.855,0.397,0.442,0.459,0.408,0.308
NCI-H1792,0.549,0.454,0.475,0.509,0.507,0.966,1.03,0.798,0.971,0.829,0.402,0.338,0.421,0.321,0.371,0.896,0.757,0.876,0.355,0.732
NCI-H1793,0.524,0.442,0.407,0.432,0.444,0.457,,0.41,0.4,0.429,0.864,0.723,0.84,0.868,0.863,0.398,0.387,0.296,0.348,0.406
NCI-H1915,0.392,0.289,0.318,0.284,0.35,0.362,0.342,0.322,0.302,0.305,1.13,1.13,1.09,1,0.825,0.372,0.349,0.339,0.326,0.292
NCI-H1944,0.486,0.393,0.429,0.458,0.411,0.226,0.236,0.229,0.235,0.213,1.18,1.26,1.3,1.29,1.2,0.206,0.237,0.232,0.228,0.227
NCI-H1975,0.27,0.327,0.375,0.358,0.382,0.444,0.361,0.467,0.324,0.393,1.01,1,0.892,0.863,0.956,0.298,0.451,0.323,0.349,0.34
NCI-H1993,0.563,0.504,0.508,0.507,0.539,0.601,0.44,0.526,0.519,0.573,0.753,0.691,0.737,0.792,0.878,0.492,0.533,0.423,0.545,0.666
NCI-H2009,0.344,0.271,0.29,0.307,0.264,0.366,0.277,0.432,0.288,0.278,1.21,1.12,1.09,1.02,1,0.284,0.29,0.289,0.264,0.252
NCI-H2023,0.621,0.54,0.555,0.561,0.633,0.806,0.545,0.688,0.559,0.64,0.653,0.579,0.697,0.679,0.645,0.547,0.547,0.603,0.573,0.437
NCI-H2085,0.62,0.568,0.472,0.5,0.514,0.265,0.246,0.232,0.235,0.243,0.669,0.866,0.843,0.84,0.942,0.236,0.168,0.239,0.215,0.213
NCI-H2087,0.194,0.196,0.198,0.198,0.23,0.997,0.826,0.938,0.87,0.796,1.14,0.962,0.871,0.896,0.919,0.924,0.784,0.825,0.978,0.753
NCI-H2126,0.571,0.55,0.588,0.561,0.531,0.76,0.595,0.633,0.535,0.561,0.656,0.733,0.746,0.7,0.717,0.534,0.638,0.586,0.52,0.457
NCI-H2228,0.672,0.577,0.517,0.602,0.634,0.753,0.586,0.59,0.384,0.532,1.17,0.677,0.8,0.644,0.611,0.57,0.391,0.509,0.538,0.455
NCI-H2347,0.294,0.268,0.211,0.291,0.265,0.638,0.292,0.284,0.298,0.304,1,0.974,1.08,0.868,0.737,0.264,0.302,0.301,0.34,0.356
